# Results from patent publication US20020137929A1, “1 - (3-heterocyclylphenyl) isothiourea, -isourea, -guanidine and -amidine herbicidal agents” (Intellectual Property Department, BASF Aktiengesellschaft, priority 1998, published 2002).
# Key:
# ZEAMX (Corn, Field) [1] = experiment: Postemergence herbicidal evaluation; type: in vivo, Zea mays; conditions: postemergence
# In short: (§1)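 Visual 0–9 rating versus control (stand, vigor, malformation, size, chlorosis, overall appearance), taken four to five weeks post-spray. Two-week-old seedlings received roughly 0.0156–0.500 kg/ha active in acetone/water (50/50) with 0.5% TWEEN 20 via nozzle at 40 psi.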
# SETVI (Foxtail, Green) [2] = experiment: Preemergence herbicidal evaluation; type: in vivo, Setaria viridis; conditions: rated 4-5 weeks after treatment
# In short: (§2)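 Sown cups got a single aqueous acetone spray of test compound (roughly 0.0156–0.500 kg/ha) before seedlings emerged. Evaluation, 4–5 weeks on, used a 0–9 visual scale covering plant stand, vigor, size, malformation, chlorosis and general appearance compared with controls.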
# SETVI (Foxtail, Green) [3] = experiment: Postemergence herbicidal evaluation; type: in vivo, Setaria viridis; conditions: postemergence
# In short: as §1
# ECHCG (Barnyardgrass) = experiment: Preemergence herbicidal evaluation; type: in vivo, Echinochloa crus-galli; conditions: rated 4-5 weeks after treatment
# In short: as §2
# [4] = system: ECHORC (Watergrass (Calif.)); experiment: Postemergence weed control under flooded paddy conditions; type: in vivo, Echinochloa oryzoides; conditions: postemergence weeds, rated 3 to 4 weeks after treatment
# In short: (§3)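 Injury ratings (0–9 scale covering stand, vigor, malformation, size, chlorosis and overall appearance versus control) were made three to four weeks after treatment. Test material, about 0.0313 to 0.500 kg/ha a.i. in 50/50 v/v aqueous/acetone, was added to flood water 1.5 to 3 cm deep over 3 to 5 cm weeds and 1.5 to 2.5 leaf rice.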
# CYPIR (Rice Flatsedge) [5] = experiment: as above; type: in vivo, Cyperus iria; conditions: postemergence weeds, rated 3 to 4 weeks after treatment
# In short: as §3
# CYPIR (Rice Flatsedge) [6] = experiment: Preemergence weed control under flooded paddy conditions; type: in vivo, Cyperus iria; conditions: rated 3-4 weeks after treatment
# In short: (§4)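 Visual injury scored 0-9 against control three to four weeks post-treatment, greenhouse-grown. Application: acetone/water (50/50) solutions dosed directly into flood water (1.5-3 cm over silt loam, planted top 0.5 cm), roughly 0.0313 to 0.500 kg/ha active ingredient.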
# [7] = system: SAGPY (Arrowhead (Pygmaea)); experiment: Postemergence weed control under flooded paddy conditions; type: in vivo, Sagittaria pygmaea; conditions: postemergence weeds, rated 3 to 4 weeks after treatment
# In short: as §3
# CYPSE (Flatsedge) [8] = experiment: Preemergence weed control under flooded paddy conditions; type: in vivo, Cyperus serotinus; conditions: rated 3-4 weeks after treatment
# In short: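 Values are visual 0-9 scores against a control for a preemergence application into paddy flood water at about 0.0313 to 0.500 kg/ha. Greenhouse duration was three to four weeks.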
# ZEAMX (Corn, Field) [9] = experiment: Preemergence herbicidal evaluation; type: in vivo, Zea mays; conditions: rated 4-5 weeks after treatment
# In short: as §2
# [10] = system: ECHORC (Watergrass (Calif.)); experiment: Preemergence weed control under flooded paddy conditions; type: in vivo, Echinochloa oryzoides; conditions: rated 3-4 weeks after treatment
# In short: as §4
# CYPSE (Flatsedge) [11] = experiment: Postemergence weed control under flooded paddy conditions; type: in vivo, Cyperus serotinus; conditions: postemergence weeds, rated 3 to 4 weeks after treatment
# In short: as §3
# ORYSAT (Rice, Tebonnet) = experiment: Postemergence herbicidal evaluation; type: in vivo, Oryza sativa, (L.) Tebonnet; conditions: postemergence
# In short: as §1
# [12] = system: TRZAWR (Wheat, Winter, cv Riband); experiment: Preemergence herbicidal evaluation; type: in vivo, Triticum aestivum; conditions: rated 4-5 weeks after treatment
# In short: as §2
compound,measurement,setting,value
"CC(C)C[C@@H](C(=O)O)N1C(=O)CSC1=Nc1cc(-n2c(=O)cc(C(F)(F)F)n(C)c2=O)c(F)cc1Cl [Compound 71, α-Isobutyl-2-{{2-chloro-5-[3,6-dihydro-3-methyl-2,6-dioxo-4-(trifluoromethyl)-1(2H)-pyrimidinyl]-4-fluorophenyl}imino}-4-oxo-3-thiazolidineacetic acid, L-]",ZEAMX herbicidal rating,"ZEAMX (Corn, Field) [1]; rate 0.0158 kg/ha",5.0
same,ZEAMX herbicidal rating,"ZEAMX (Corn, Field) [1]; rate 0.0315 kg/ha",5.0
same,ZEAMX herbicidal rating,"ZEAMX (Corn, Field) [1]; rate 0.0630 kg/ha",7.0
same,Preemergence herbicidal rating SETVI,"SETVI (Foxtail, Green) [2]; rate 0.0156 kg/ha",0.0
same,Preemergence herbicidal rating SETVI,"SETVI (Foxtail, Green) [2]; rate 0.0313 kg/ha",0.0
same,Preemergence herbicidal rating SETVI,"SETVI (Foxtail, Green) [2]; rate 0.0625 kg/ha",0.0
same,Preemergence herbicidal rating SETVI,"SETVI (Foxtail, Green) [2]; rate 0.1250 kg/ha",4.0
same,Preemergence herbicidal rating SETVI,"SETVI (Foxtail, Green) [2]; rate 0.2500 kg/ha",9.0
same,SETVI herbicidal rating,"SETVI (Foxtail, Green) [3]; rate 0.0158 kg/ha",4.0
same,SETVI herbicidal rating,"SETVI (Foxtail, Green) [3]; rate 0.0315 kg/ha",7.0
same,SETVI herbicidal rating,"SETVI (Foxtail, Green) [3]; rate 0.0630 kg/ha",9.0
same,Preemergence herbicidal rating ECHCG,ECHCG (Barnyardgrass); rate 0.0156 kg/ha,0.0
same,Preemergence herbicidal rating ECHCG,ECHCG (Barnyardgrass); rate 0.0313 kg/ha,0.0
same,Preemergence herbicidal rating ECHCG,ECHCG (Barnyardgrass); rate 0.0625 kg/ha,0.0
same,Preemergence herbicidal rating ECHCG,ECHCG (Barnyardgrass); rate 0.1250 kg/ha,2.0
same,Preemergence herbicidal rating ECHCG,ECHCG (Barnyardgrass); rate 0.2500 kg/ha,4.0
same,Herbicidal rating ECHORC,[4]; Rate 0.1250 kg/ha,0.0
same,Herbicidal rating ECHORC,[4]; Rate 0.2500 kg/ha,7.0
same,Herbicidal rating CYPIR,CYPIR (Rice Flatsedge) [5]; Rate 0.1250 kg/ha,3.0
same,Herbicidal rating CYPIR,CYPIR (Rice Flatsedge) [5]; Rate 0.2500 kg/ha,7.0
same,CYPIR herbicidal effect rating,CYPIR (Rice Flatsedge) [6]; 0.1250 kg/ha,3.0
same,CYPIR herbicidal effect rating,CYPIR (Rice Flatsedge) [6]; 0.2500 kg/ha,7.0
same,Herbicidal rating SAGPY,[7]; Rate 0.1250 kg/ha,0.0
same,Herbicidal rating SAGPY,[7]; Rate 0.2500 kg/ha,0.0
same,CYPSE herbicidal effect rating,CYPSE (Flatsedge) [8]; 0.1250 kg/ha,3.0
same,CYPSE herbicidal effect rating,CYPSE (Flatsedge) [8]; 0.2500 kg/ha,3.0
same,Preemergence herbicidal rating ZEAMX,"ZEAMX (Corn, Field) [9]; rate 0.0156 kg/ha",0.0
same,Preemergence herbicidal rating ZEAMX,"ZEAMX (Corn, Field) [9]; rate 0.0313 kg/ha",0.0
same,Preemergence herbicidal rating ZEAMX,"ZEAMX (Corn, Field) [9]; rate 0.0625 kg/ha",0.0
same,Preemergence herbicidal rating ZEAMX,"ZEAMX (Corn, Field) [9]; rate 0.1250 kg/ha",3.0
same,Preemergence herbicidal rating ZEAMX,"ZEAMX (Corn, Field) [9]; rate 0.2500 kg/ha",3.0
same,ECHORC herbicidal effect rating,[10]; 0.1250 kg/ha,0.0
same,ECHORC herbicidal effect rating,[10]; 0.2500 kg/ha,7.0
same,Herbicidal rating CYPSE,CYPSE (Flatsedge) [11]; Rate 0.1250 kg/ha,3.0
same,Herbicidal rating CYPSE,CYPSE (Flatsedge) [11]; Rate 0.2500 kg/ha,3.0
same,ORYSAT herbicidal rating,"ORYSAT (Rice, Tebonnet); rate 0.0158 kg/ha",3.0
same,ORYSAT herbicidal rating,"ORYSAT (Rice, Tebonnet); rate 0.0315 kg/ha",3.5
same,ORYSAT herbicidal rating,"ORYSAT (Rice, Tebonnet); rate 0.0630 kg/ha",4.5
same,Preemergence herbicidal rating TRZAWR,[12]; rate 0.0156 kg/ha,0.0
same,Preemergence herbicidal rating TRZAWR,[12]; rate 0.0313 kg/ha,0.0
same,Preemergence herbicidal rating TRZAWR,[12]; rate 0.0625 kg/ha,0.0
same,Preemergence herbicidal rating TRZAWR,[12]; rate 0.1250 kg/ha,1.0
same,Preemergence herbicidal rating TRZAWR,[12]; rate 0.2500 kg/ha,3.0
